Values joined by “and” are separate entries in the source; they are usually repeats but may differ in a detail not shown here. Equal entries are not always repeated.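 Cells were grown in 96-well plates and exposed to each compound for 48 hours at five concentrations; endpoints were interpolated linearly between bracketing concentrations, or set to the highest concentration if not reached. GI50 marks 50% less growth. TGI: total growth inhibition.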
What was measured:
Assay in all cases: inhibition of tumour cell growth, NCI panel, 48 h
[1] = system: 786-0 renal
[2] = system: A498 renal
[3] = system: A549 NSCLC
[4] = system: ACHN renal
[5] = system: BT-549 breast
[6] = system: CAKI-1 renal
[7] = system: CCRF-CEM leukemia
[8] = system: COLO 205 colon
[9] = system: DU-145 prostate
[10] = system: EKVX NSCLC
[11] = system: HCC-2998 colon
[12] = system: HCT-116 colon
[13] = system: HCT-15 colon
[14] = system: HL-60(TB) leukemia
[15] = system: HOP-62 NSCLC
[16] = system: HOP-92 NSCLC
[17] = system: HS 578T breast
[18] = system: HT29 colon
[19] = system: IGROV1 ovarian
[20] = system: K-562 leukemia
[21] = system: KM12 colon
[22] = system: LOX IMVI melanoma
[23] = system: M14 melanoma
[24] = system: MALME-3M melanoma
[25] = system: MCF7 breast
[26] = system: MDA-MB-231 breast
[27] = system: MDA-MB-435
[28] = system: MOLT-4 leukemia
[29] = system: NCI-H226 lung
[30] = system: NCI-H23 lung
[31] = system: NCI-H460 lung
[32] = system: NCI-H522 lung
[33] = system: NCI/ADR-RES ovarian
[34] = system: OVCAR-3 ovarian
[35] = system: OVCAR-4 ovarian
[36] = system: OVCAR-5 ovarian
[37] = system: OVCAR-8 ovarian
[38] = system: PC-3 prostate
[39] = system: RPMI-8226 leukemia
[40] = system: RXF 393 renal
[41] = system: SF-268 CNS
[42] = system: SF-295 CNS
[43] = system: SF-539 CNS
[44] = system: SK-MEL-2 melanoma
[45] = system: SK-MEL-28 melanoma
[46] = system: SK-MEL-5 melanoma
[47] = system: SK-OV-3 ovarian
[48] = system: SN12C renal
[49] = system: SNB-19 CNS
[50] = system: SNB-75 CNS
[51] = system: SR leukemia
[52] = system: SW-620 colon
[53] = system: T-47D breast
[54] = system: TK-10 renal
[55] = system: U251 CNS
[56] = system: UACC-257 melanoma
[57] = system: UACC-62 melanoma
[58] = system: UO-31 renal

In the case of `Cc1c(O)cccc1C(=O)N[C@@H](CSc1ccccc1)[C@H](O)CN1C[C@H]2CCCC[C@H]2C[C@H]1C(=O)NC(C)(C)C`, the GI50 [1] was 3.8 µM and 5.87 µM, the TGI [1] was 16.4 µM and 16 µM and the GI50 [2] was 10.5 µM and 4.26 µM. For the same compound, the TGI [2] was 24.9 µM and 15.3 µM, the GI50 [3] was 3.01 µM and 4.94 µM and the TGI [3] was 10.8 µM and 22.8 µM. The GI50 [4] was 3.02 µM and 5.69 µM, the TGI [4] was 13.1 µM and 17.1 µM and the GI50 [5] was 4.97 µM and 3.88 µM. The TGI [5] was 21.1 µM and 17.1 µM, the GI50 [6] was 2.57 µM and 9.32 µM and the TGI [6] was 6.56 µM and > 37.8 µM. The GI50 [7] was 2.76 µM and 8.59 µM, the TGI [7] was 6.83 µM and > 27 µM and the GI50 [8] was 2.24 µM and 4.05 µM. The TGI [8] was 6.03 µM, the GI50 [9] was 6.58 µM and 8.27 µM and the TGI [9] was 25.2 µM and 31.8 µM. The GI50 [10] was 4.86 µM and 6.92 µM, the TGI [10] was 38 µM and > 43.4 µM and the GI50 [11] was 3.6 µM and 4.97 µM. For the same compound, the TGI [11] was 10.5 µM and 13.6 µM, the GI50 [12] was 4.27 µM and 5.97 µM and the TGI [12] was 16 µM and 17.9 µM. For the same compound, the GI50 [13] was 1.77 µM and 3.11 µM, the TGI [13] was 13.2 µM and 12.9 µM and the GI50 [14] was 2.95 µM and 3.43 µM. The TGI [14] was > 26 µM and 13.6 µM, the GI50 [15] was 7.26 µM and 5 µM and the TGI [15] was 21.3 µM and 14.6 µM. For the same compound, the GI50 [16] was 2.47 µM and 6.25 µM, the TGI [16] was 7.62 µM and 25.2 µM and the GI50 [17] was 4.82 µM and 4.87 µM. For the same compound, the TGI [17] was > 58 µM and 20.3 µM, the GI50 [18] was 3.06 µM and 5.65 µM and the TGI [18] was 12 µM and 19.9 µM. For the same compound, the GI50 [19] was 3.45 µM and 2.62 µM, the TGI [19] was 32 µM and 7.74 µM and the GI50 [20] was 3.35 µM and 10.3 µM. For the same compound, the TGI [20] was > 100 µM and 31.3 µM, the GI50 [21] was 3.45 µM and 4.99 µM and the TGI [21] was 10.4 µM and 20.1 µM. The GI50 [22] was 5.27 µM and 5.39 µM, the TGI [22] was 18.8 µM and 15.8 µM and the GI50 [23] was 4.45 µM and 5.2 µM. The TGI [23] was 16.4 µM and 15.4 µM, the GI50 [24] was 2.13 µM and 7.03 µM and the TGI [24] was 8.41 µM and 18.6 µM. The GI50 [25] was 6.22 µM and 3.9 µM, the TGI [25] was 24.4 µM and 15.7 µM and the GI50 [26] was 3.24 µM and 5.92 µM. The TGI [26] was 11.5 µM and 13.7 µM, the GI50 [27] was 3.46 µM and 4.9 µM and the TGI [27] was 12.8 µM and 38.4 µM. For the same compound, the GI50 [28] was 2.22 µM and 2.96 µM, the TGI [28] was 5.46 µM and 10.4 µM and the GI50 [29] was 4.84 µM and 5.57 µM. The TGI [29] was 14 µM and 16.5 µM, the GI50 [30] was 6.68 µM and 7 µM and the TGI [30] was 30.6 µM and 26.3 µM. For the same compound, the GI50 [31] was 3.48 µM and 4.79 µM, the TGI [31] was 13.8 µM and 11.4 µM and the GI50 [32] was 3.06 µM and 2.94 µM. The TGI [32] was 11.7 µM and 13.4 µM, the GI50 [33] was 4.87 µM and 6.17 µM and the TGI [33] was 32.1 µM and 27.1 µM. The GI50 [34] was 2.62 µM and 5.24 µM, the TGI [34] was 9.46 µM and 16.2 µM and the GI50 [35] was 5.97 µM and 5.96 µM. For the same compound, the TGI [35] was > 37.6 µM and 23.4 µM, the GI50 [36] was 8.95 µM and 6.31 µM and the TGI [36] was 31.6 µM and 19 µM. The GI50 [37] was 6.56 µM and 7.87 µM, the TGI [37] was 35.2 µM and 39.6 µM and the GI50 [38] was 2.95 µM and 3.94 µM. The TGI [38] was 11.1 µM and > 35.1 µM, the GI50 [39] was 2.23 µM and 2.01 µM and the TGI [39] was 4.69 µM and 7.21 µM. The GI50 [40] was 1.96 µM and 2.91 µM, the TGI [40] was 4.26 µM and 6.37 µM and the GI50 [41] was 4.5 µM and 5.97 µM. For the same compound, the TGI [41] was 15.8 µM and 26 µM, the GI50 [42] was 2.53 µM and 3.49 µM and the TGI [42] was 6.97 µM and 25.5 µM. The GI50 [43] was 6.35 µM and 5.55 µM, the TGI [43] was 22.2 µM and 16.2 µM and the GI50 [44] was 5.63 µM and 5.26 µM. For the same compound, the TGI [44] was > 100 µM and 25.4 µM, the GI50 [45] was 5.68 µM and 7.33 µM and the TGI [45] was 19.3 µM and 22.2 µM. For the same compound, the GI50 [46] was 3.12 µM and 5.11 µM, the TGI [46] was 13.5 µM and 11.7 µM and the GI50 [47] was 4.29 µM and 9.5 µM. The TGI [47] was 23.9 µM and > 59.7 µM, the GI50 [48] was 4.07 µM and 6.63 µM and the TGI [48] was 12.6 µM and 18.3 µM. The GI50 [49] was 3.17 µM and 6.96 µM, the TGI [49] was 16.1 µM and > 43.8 µM and the GI50 [50] was 2.77 µM and 2.58 µM. For the same compound, the TGI [50] was 14.5 µM and 18.4 µM, the GI50 [51] was 2.21 µM and the TGI [51] was 5.48 µM. For the same compound, the GI50 [52] was 5.66 µM and 8.79 µM, the TGI [52] was 27 µM and 29.9 µM and the GI50 [53] was 3.79 µM and 6.02 µM. For the same compound, the TGI [53] was 19.4 µM and > 55.6 µM, the GI50 [54] was 4.26 µM and 5.89 µM and the TGI [54] was 23.6 µM and 24.5 µM. For the same compound, the GI50 [55] was 3.79 µM and 4.25 µM, the TGI [55] was 14.5 µM and 14.7 µM and the GI50 [56] was 3.66 µM and 6.84 µM. The TGI [56] was 13.8 µM and 24.7 µM, the GI50 [57] was 5.79 µM and 5.8 µM and the TGI [57] was 18.8 µM and 17.6 µM. For the same compound, the GI50 [58] was 3.45 µM and 3.81 µM and the TGI [58] was 16.4 µM and 19.5 µM.
